How the values were obtained:
Assay type in all cases: in vivo
Boophilus microplus = Boophilus microplus test (BOOPMI injection); conditions: 20 μg/animal, injection into the abdomen, after 7 days
Protocol: Boophilus microplus Test (BOOPMI Injection)
(§1) Solvent: Dimethyl Sulphoxide
To produce a suitable preparation of active compound, 10 mg of active compound are mixed with 0.5 ml of solvent and the concentrate is diluted with solvent to the desired concentration. The solution of active compound is injected into the abdomen (Boophilus microplus), and the animals are transferred into dishes and kept in a climatized room. The activity is assessed by […] of fertile eggs.
After 7 days, the effect in % is determined 100% means that none of the ticks has laid any fertile eggs.

Ctenocephalides felis = Ctenocephalides felis oral test (CTECFE); conditions: 100 ppm in citrated cattle blood, after two days
Protocol: Ctenocephalides Felis Oral Test (CTECFE)
Solvent: 1 Part by Weight of Dimethyl Sulphoxide
To produce a suitable preparation of active compound, 10 mg of active compound are mixed with 0.5 ml of dimethyl sulphoxide. Part of the concentrate is diluted with citrated cattle blood, and the desired concentration is prepared.
About 20 unfed adult fleas (Ctenocephalides felis) are placed into a chamber which is closed at the top and bottom with gauze. A metal cylinder whose bottom end is closed with parafilm is placed onto the chamber. The cylinder contains the blood/active compound preparation, which can be taken up by the fleas through the parafilm membrane. After two days, the kill in % is determined 100% means that all fleas have been killed; 0% means that none of the fleas have been killed.

Lucilia cuprina larvae = assay: Lucilia cuprina test (LUCICU); conditions: 100 ppm, after 2 days
Protocol: Lucilia cuprina Test (LUCICU)
as §1
To produce a suitable preparation of active compound, 10 mg of active compound are mixed with 0.5 ml of dimethyl sulphoxide and the concentrate is diluted with water to the desired concentration. Vessels containing horsemeat treated with the active compound preparation of the desired concentration are populated with about 20 Lucilia cuprina larvae.
After 2 days, the kill in % is determined. 100% means that all larvae have been killed; 0% means that none of the larvae have been killed.

[1] = system: cat fleas (Ctenocephalides felis, fully sensitive laboratory strain); assay: Contact test against fleas in-vitro (CTECFE contact); conditions: for activity against cat fleas: 500 g/ha, after 48 h
Protocol: Contact Test Against Fleas In-Vitro (CTECFE Contact)
An amount of 0.9 mg of active compound is weighed out, and 1 ml of acetone is added.
Of this acetone solution, either […] are transferred directly into roll-necked test tubes or an aliquot is diluted with 4 parts of acetone 1:5. For its part, 250 μl of this dilution are pipetted into roll-necked test tubes, or the dilution is diluted further, etc., until the desired number of dilution steps is reached.
The roll-necked test tubes containing the solution of the active compound in acetone are immediately coated in a fume cupboard by 2 h of swing rotation at 30 rpm. After evaporation of the solvent, the active compound contained in the acetone gives, at the highest concentration tested, an active compound content of 500 g/ha (or 500 μg/dm^2) on the surface of the test tube.
10-20 Adult cat fleas (Ctenocephalides felis, fully sensitive laboratory strain) anesthetized with CO2 are transferred into the test tubes prepared in this manner, and the test tubes are closed with a plastic roll-necked lid provided with fine holes.
The test tubes are stored vertically at room temperature and humidity for 24 or 48 h. After 24 and 48 h, the activity of the active compound applied is determined by comparison with an acetone-treated control. Here, an observed normal activity for all fleas corresponds to 0% activity, a strongly restricted or uncoordinated (knock-down) movement or death of all fleas corresponds to 100% activity.

[2] = system: larvae of the mustard beetle (Phaedon cochleariae); assay: Phaedon test (PHAECO spray treatment); conditions: for activity (beetle larvae killed) / pest or weed control at 500 g/ha: 500 g/ha, spray, after 7 days; for pest or weed control at 500 g/ha: Phaedon cochleariae, 168 h, read-out: activity (beetle larvae killed)
Protocol: Phaedon Test ([…] Spray Treatment) Solvents: 78.0 parts by weight of acetone • • 1.5 parts by weight of dimethylformamide Emulsifier: 0.5 part by weight of alkylaryl polyglycol ether To produce a suitable preparation of active compound, 1 part by weight of active compound is mixed with the stated amounts of solvents and emulsifiers, and the concentrate is diluted with emulsifier-containing water to the desired concentration. Discs of Chinese cabbage leaves (Brassica pekinensis) are sprayed with an active compound preparation of the desired concentration and, after drying, populated with larvae of the mustard beetle (Phaedon cochleariae).

[3] = system: caterpillars of the army worm (Spodoptera frugiperda); assay: Spodoptera frugiperda test (SPODFR spray treatment); conditions: for activity (caterpillars killed) / pest or weed control at 500 g/ha: 500 g/ha, spray, after 7 days; for pest or weed control at 500 g/ha: Spodoptera frugiperda, 168 h, read-out: activity (caterpillars killed)
Protocol: Spodoptera frugiperda Test (SPODFR Spray Treatment) Solvents: 78.0 parts by weight of acetone • • 1.5 parts by weight of dimethylformamide Emulsifier: 0.5 part by weight of alkylaryl polyglycol ether
(§2) To produce a suitable preparation of active compound, 1 part by weight of active compound is mixed with the stated amounts of solvents and emulsifier, and the concentrate is diluted with emulsifier-containing water to the desired concentration.
Discs of maize leaves (Zea mays) are sprayed with an active compound preparation of the desired concentration and, after drying, populated with caterpillars of the army worm (Spodoptera frugiperda) besetzt.
After 7 days, the activity in % is determined. 100% means that all caterpillars have been killed; 0% means that none of the caterpillars have been killed.

[4] = system: green peach aphid (Myzus persicae); assay: Myzus test (MYZUPE spray treatment); conditions: for activity (aphids killed) / pest or weed control at 500 g/ha: 500 g/ha, spray, after 6 days; for pest or weed control at 500 g/ha: Myzus persicae, 144 h, read-out: activity (aphids killed)
Protocol: Myzus Test (MYZUPE Spray Treatment) Solvents: 78 parts by weight of acetone • • 1.5 parts by weight of dimethylformamide Emulsifier: 0.5 part by weight of alkylaryl polyglycol ether
as §2
Discs of Chinese cabbage leaves (Brassica pekinensis) which are infested by all stages of the green peach aphid (Myzus persicae) are sprayed with an active compound preparation of the desired concentration.
After 6 days, the activity in % is determined. 100% means that all aphids have been killed; 0% means that none of the aphids have been killed.

[5] = system: greenhouse red spider mite (Tetranychus urticae); assay: Tetranychus test; OP-resistant (TETRUR spray treatment); conditions: for activity (spider mites killed) / pest or weed control at 500 g/ha: 500 g/ha, spray, after 6 days; for pest or weed control at 500 g/ha: Tetranychus urticae, 144 h, read-out: activity (spider mites killed)
Protocol: Tetranychus Test; OP-Resistant (TETRUR Spray Treatment) Solvents: 78.0 parts by weight of acetone • • 1.5 parts by weight of dimethylformamide Emulsifier: 0.5 part by weight of alkylaryl polyglycol ether
as §2
Discs of bean leaves (Phaseolus vulgaris) infested by all stages of the greenhouse red spider mite (Tetranychus urticae) are sprayed with an active compound preparation of the desired concentration.
After 6 days, the activity in % is determined. 100% means that all spider mites have been killed; 0% means that none of the spider mites have been killed.

[6] = system: Anopheles gambiae (homocygus kdr); assay: Anopheles test (ANPHGB surface treatment); conditions: for knock-down activity: 100 mg/m^2, two hours after contact, exposition 30 minutes; for mortality at 100 mg/m2: Anopheles gambiae, read-out: activity (mortality in %)
Protocol: Anopheles Test (ANPHGB Surface Treatment) Solvent: Acetone
(§3) To produce a suitable preparation of active compound, the active compound is dissolved in acetone (2 mg/ml). The active compound preparation is pipetted onto a glazed tile and, after drying, adult mosquitoes of the species Anopheles gambiae (homocygus kdr) are placed onto the treated tile. The exposition time is 30 minutes.
(§4) Two hours after contact to the treated surface, the knock-down proportion of the test animals in % is determined.
24 hours after contact to the treated surface, the mortality in % is determined. Here, 100% means that all mosquitoes have been killed; 0% means that none of the mosquitoes has been killed.

Aedes aegypti = assay: Aedes test (AEDSAE surface treatment); conditions: for knock-down activity: 100 mg/m^2, two hours after contact, exposition 30 minutes
Protocol: Aedes Test (AEDSAE Surface Treatment)
as §3, with “Aedes aegypti” for “Anopheles gambiae (homocygus kdr)”
as §4
24 hours after contact to the treated surface, the mortality in % is determined Here, 100% means that all mosquitoes have been killed; 0% means that none of the mosquitoes has been killed.

[7] = active compound concentration 500 g/ha
[8] = active compound concentration 100 g/ha

SMILES | activity (100% = none of the ticks has laid any fertile eggs) (Boophilus microplus) [%] | activity (kill in %) (Ctenocephalides felis) [%] | activity (kill in %) (Lucilia cuprina larvae) [%] | activity against cat fleas [1] [%] | activity (beetle larvae killed) [2] [%] | activity (caterpillars killed) [3] [%] | activity (aphids killed) [4] [%] | activity (spider mites killed) [5] [%] | knock-down activity [6] [%] | knock-down activity (Aedes aegypti) [%] | further results
Cc1ccc(N=C2C(=CSc3cc(F)cc(F)c3)CCc3ccccc32)cc1 [Example 1-81] | 100 | 100 | 100 | 100 | 100 | 100 | 100 | 100 | 100 | – | –
Cc1ccc(N=C2C(=CSc3ccc(F)cc3)C(C)(C)c3ccccc32)cc1 [Example 1-21] | – | – | – | 100 | – | – | – | – | – | – | Kill rate in % after 2 days ([1]; active compound concentration 0.032 g/ha): 100%; Kill rate in % after 2 days ([1]; active compound concentration 0.16 g/ha): 100%; pest or weed control at 500 g/ha [2]: 100%; Kill rate in % after 7 days [2, 7]: 100%; pest or weed control at 500 g/ha [3]: 100%; Kill rate in % after 7 days [3, 8]: 83%; pest or weed control at 500 g/ha [4]: 100%; Kill rate in % after 6 days [4, 8]: 100%; Kill rate in % after 6 days [4, 7]: 100%; pest or weed control at 500 g/ha [5]: 100%; Kill rate in % after 6 days [5, 8]: 100%; Kill rate in % after 6 days [5, 7]: 100%; mortality at 100 mg/m2 [6]: 100%; Kill rate in % after 24 hours ([6]; active compound concentration 8 g/ha): 100%; mortality at 100 mg/m2 (Aedes aegypti; Aedes aegypti, read-out: activity (mortality in %)): 100%
CCc1ccc2c(c1)CCC(=CSc1ccc(F)cc1)C2=Nc1ccc(C)cc1 [Example 1-84] | – | – | – | 100 | 100 | 100 | 100 | 100 | 100 | 100 | –
Cc1ccc(N=C2C(=CSc3ccccc3Cl)CCc3ccccc32)cc1 [Example 1-69] | 100 | 100 | 100 | 100 | 100 | 100 | 90 | 100 | 90 | – | –
COc1ccc2c(c1)CCC(=CSc1ccc(F)cc1)C2=Nc1ccc(C)cc1 [Example 1-17] | – | – | – | 100 | 100 | 100 | 100 | 100 | 95 | 100 | –
Cc1ccc(N=C2C(=CSc3ccc(F)cc3)C(C)c3cc(F)ccc32)cc1C (mixture of isomers) [Example 1-63] | 100 | 90 | – | 100 | 100 | 100 | 100 | 100 | – | – | –
Cc1ccc(N=C2C(=CSc3ccccc3)COc3ccccc32)cc1 [Example 1-7] | – | – | – | 100 | 100 | 100 | 100 | 100 | 100 | 85 | –
Fc1ccc(N=C2/C(=C/Sc3ccccc3)CCc3ccccc32)cc1 [Example 1-3, 4-Fluoro-N-[(2E)-2-[(phenylsulphanyl)methylene]-3,4-dihydronaphthalen-1(2H)-ylidene]aniline] | 100 | 90 | 100 | 100 | – | – | – | – | 80 | – | pest or weed control at 500 g/ha [2]: 100%; pest or weed control at 500 g/ha [3]: 100%; pest or weed control at 500 g/ha [4]: 100%; pest or weed control at 500 g/ha [5]: 100%; mortality at 100 mg/m2 [6]: 100%
CC1C(=CSc2ccccc2)C(=Nc2ccc(F)cc2)c2ccccc21 (mixture of isomers) [Example 1-6] | 100 | 100 | 100 | 100 | 100 | 100 | 100 | 100 | – | – | –
Cc1ccc(N=C2C(=CSc3ccccc3)C(c3ccccc3)c3ccccc32)cc1 (mixture of isomers) [Example 1-20] | 100 | – | – | 100 | 100 | 100 | 100 | 100 | – | – | –
CCc1ccc(N=C2C(=CSc3ccc(F)cc3)CCc3ccccc32)cc1 [Example 1-39] | – | – | – | 100 | 100 | 100 | 100 | 80 | 100 | 100 | –

Source: patent US9055743B2, “Alpha, beta-unsaturated imines” (BAYER INTELLECTUAL PROPERTY GMBH, priority 2010, dated 2015)
